Measured values: patent US8337828B2, “Use of thymosin alpha 1, alone or in combination with PTX3 or ganciclovir, for the treatment of cytomegalovirus infection” (priority 2006, dated 2012)
Ends that are not written are not given here.

Columns and labels:
[1] = system: NK cells; format: in vivo, BALB/c mice; details: 200 μg/kg for a week
Description: Phenotypic analysis of total (FIG. 2a, FIG. 2b) or NK (FIG. 2c) cells from spleen of MCMV-infected BALB/c mice untreated (−) or treated (+) with 200 μg/kg Thymosin alpha 1 for a week; None represents uninfected mice. Numbers refer to the percentage of positive cells on FACS analysis, a week after the infection. Histograms are representative of 1 out of 4 independent experiments. (FIG. 2d) Cytotoxic activity (by standard 51Cr-release assay against YAC-1 targets) and frequency of IFN-.-producing NK cells by ELISPOT assay from mice treated as above. Bars indicate the standard errors. *P<0.05, infected vs uninfected mice. **P<0.05, Thymosin alpha 1-treated vs untreated infected mice. The results shown are from 5 independent experiments. Flow cytometry analyses. After blocking of FcRs with the anti-CD16/32 (2.4G2) antibody, cells were analyzed for antigen expression with a FACScan flow cytofluorometer (Becton Dickinson, Mountain View, Calif.) equipped with CELLQuest™ software. Control staining of cells with irrelevant Ab was used to obtain background fluorescence values. Abs were from PharMingen. NK cell cytotoxic activity. NK cells, purified from spleens by DX5 microbeads (Miltenyi Biotec), were defined as NK1.1+CD3-cells. NK cytolytic activity was assessed against 51 Cr-labeled YAC-1 lymphoma cells (Blood 2005; 106:4397-4406). Quantification of cytokines by ELISA and ELISPOT assays. The levels of cytokines in the culture supernatants of mitogen-stimulated spleen cells (48 h stimulation with 10 μg/ml ConA) or MCMV-pulsed DC (24 h) were determined by ELISA (R&D Systems and PBL, Biomedical Lab, Milan, Italy). The detection limits (pg/ml) of the assays were <16 for IL-12 p70, <10 for IFN-., <3 for IL-10 and <10 for IFN-a. IFN-.-producing NK cells were enumerated by ELISPOT assay on purified NK (Virus Res. 2003; 98:17-467 25). Results are expressed as the mean number of cytokine-producing cells (±SE) per 10^5 cells, calculated using replicates of serial 2-fold dilutions of cells.

[2] = system: CD11b+DC or pDC; assay: Cytokine production by MCMV-pulsed DC subsets (ELISA); format: cell-based, BALB/c mice; details: MCMV-infected
Text: Arrow indicates an inducible band. Lane 1, uninfected cells; lane 2, MCMV-infected; lane 3, Thymosin alpha 1 treated; lane 4, MCMV+Thymosin alpha 1 treated. (FIG. 3b) Cytokine production (pg/ml) by DC subsets treated as above. Bars indicate the standard errors. *P<0.05, cytokine production in MCMV-infected DC vs uninfected DC. **P<0.05, Thymosin alpha 1-treated vs untreated DC. (FIG. 3c) Cytokine production in mice during MCMV infection. Cytokine levels (pg/ml) in culture supernatants of spleen cells from mice with MCMV infection and treated for a week with Thymosin alpha 1 or GCV. *P<0.05, treated vs untreated mice. ND, not done.
DC subset generation. DC were obtained by culturing 10^6/ml BALB/c bone marrow cells in Iscove's modified medium, containing 10% filtered bovine serum, 50 μM 2-mercaptoethanol, sodium pyruvate (1 mM), 2 mM L-glutamine, HEPES (10 mM), and 50 μg/ml gentamycin in the presence of 150 U/ml mouse rGM-CSF (Sigma) and 75 U/ml rIL-4 (R&D Systems) for 7 days to obtain CD11b+DC or 200 ng/ml FLT3-L (Immunex Corporation, Seattle, Wash.) for 9 days to obtain pDC. Final maturation was accomplished by the addition of 1 μg/ml LPS or 2 μg/ml cytosine phosphorothioate-guanine oligodeoxynucleotide (CpG-B ODN 1668) (Coley Pharmaceutical Group, Wellesley, Mass.) for additional 24 h to CD11b+DC or pDC, respectively (Blood 2003; 102: 3807-344; 3814) CD11b+DC were discriminated on CD11chigh expression and were distinctly composed of CD8a+DC and CD11b+DC. pDC were defined as CD11clow, Ly6C+, CD8a+/− cells. Photographs were taken using a high Resolution Microscopy Color Camera AxioCam, using the AxioVision Software Rel. […]
Quantification of cytokines by ELISA and ELISPOT assays. The levels of cytokines in the culture supernatants of mitogen-stimulated spleen cells (48 h stimulation with 10 μg/ml ConA) or MCMV-pulsed DC (24 h) were determined by ELISA (R&D Systems and PBL, Biomedical Lab, Milan, Italy). […] Results are expressed as the mean number of cytokine-producing cells (±SE) per 10^5 cells, calculated using replicates of serial 2-fold dilutions of cells.

[3] = system: MCMV; assay: MCMV viral load in TLR-deficient mice (plaque assay); format: in vivo, C57BL6, TLR4-/-, TLR9-/- and MyD88-/- mice; details: 200 μg/kg for a week
Description: Viral load (FIG. 4a) and cytokine production (FIG. 4b) in C57BL6, TLR4−/−, TLR9−/− and MyD88−/− mice infected with 5×10^5 PFU of MCMV and treated with 200 μg/kg Tα1 for a week. Virus titers, expressed as log 10, were quantified on MEF cells by standard plaque assay on infected tissues removed a week after infection and treatment. Cytokine (pg/ml) levels in culture supernatants of spleen cells were determined by ELISA assay. Bars indicate the standard errors. *P<0.05, Tα1-treated vs untreated mice. Results are representative of 3 independent experiments. Mice. Wild-type (WT) inbred C57BL6 and BALB/c mice, 8 to 12 weeks old, were purchased from Charles River Breeding Laboratories (Calco, Italy). Pairs of homozygous TLR9-(TLR9−/−), TLR4-(TLR4−/−), and MyD88-(MyD88−/−)-deficient mice (on the C57BL6 background), were bred under specific pathogen-free conditions at the breeding facilities of the University of Perugia, Perugia, Italy. Experiments were performed following protocols approved by the institutional animal committee and in accordance with European Economic Community Council Directive as well as institutional animal care and use guidelines. Plaque assay. Plaque assay was determined on cells grown to subconfluence and incubated with serially diluted virus samples for 2 h at 37° C. (10). All organs from uninfected animals were negative viruses. Virus titers are expressed as log 10 (mean±standard errors, SE).

[4] = system: lymphosarcoma cells; details: mouse, in vivo; cited from earlier work
[5] = spleen, MCMV-infected BALB/c mice

Ac-Ser-Asp-Ala-Ala-Val-Asp-Thr-Ser-Ser-Glu -Ile-Thr-Thr-Lys-Asp-Leu-Lys-Glu-Lys-Lys-Glu-Val-Glu-Glu-Ala-Glu-Asn-O (Ac-SDAAVDTSSEITTKDLKEKKEVEEAEN) [Thymosin alpha 1, acidic peptide present in thymus extract with immunoregulatory properties]
frequency of IFN-.-producing cells (ELISPOT) ([1]; ex-vivo purified splenic NK cells): significantly up-regulated | expansion of CD4+ or CD8+ T cells [1, 5]: not affecting the expansion | expansion of NK1.1+ NK cells [1, 5]: expanded | expression of the activation marker CD69 on NK cells [1, 5]: increased expression | production of IFN-a ([2]; CD11b+DC): slightly promoted | production of IFN-a ([2]; pDC pre-treated): greatly increased | production of IL-12p70 ([2]; pDC pre-treated): not affecting | antiviral effect (viral load) ([3]; C57BL6 mice): effective | antiviral effect (viral load) ([3]; MyD88-/- mice): completely ineffective | antiviral effect (viral load) ([3]; TLR4-/- mice): effective | antiviral effect (viral load) ([3]; TLR9-/- mice): completely ineffective | local sarcoma growth, liver and lung metastases of lymphosarcoma cells [4]: significantly reduced
